Data: article PMC8972196, “A Set of Experimentally Validated Decoys for the Human CC Chemokine Receptor 7 (CCR7) Obtained by Virtual Screening” (Frontiers in Pharmacology, 2022)
Like-named read-outs stand apart in the source and are kept apart here.

Biological target: T1, human CCR7 (Homo sapiens, UniProt P32248)
T1 construct: expressed in transfected cells
T1 sequence (P32248 25-378): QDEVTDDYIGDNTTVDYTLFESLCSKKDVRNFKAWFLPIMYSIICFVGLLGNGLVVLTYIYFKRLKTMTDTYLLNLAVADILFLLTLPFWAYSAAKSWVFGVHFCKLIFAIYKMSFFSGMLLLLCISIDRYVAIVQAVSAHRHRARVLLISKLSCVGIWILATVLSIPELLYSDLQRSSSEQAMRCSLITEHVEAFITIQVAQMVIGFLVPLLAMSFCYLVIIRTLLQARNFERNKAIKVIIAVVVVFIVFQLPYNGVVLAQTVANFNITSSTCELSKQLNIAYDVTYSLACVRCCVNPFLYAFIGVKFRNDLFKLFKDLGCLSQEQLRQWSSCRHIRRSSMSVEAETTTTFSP
Test: CCL19-induced calcium mobilization assay, U87.CD4 cells expressing CCR7
Format: cell-based
Conditions: for IC50: read-out: IC50 [μM] block CCL19 induced calcium signaling
Description: U87.CD4 cells that stably express either human CCR7, CXCR2, CCR5 or CXCR4 were seeded (20,000 cells/well) in gelatin-coated black-walled polystyrene 96-well plates with clear bottom and incubated overnight at 37°C and 5% CO2. […] Culture medium was removed, and cells were incubated for 45 min at room temperature in the dark. […] Exactly the same protocol was used to record calcium responses in Chinese hamster ovary (CHO)-K1 cells, upon stimulation with adenosine triphosphate (ATP, purchased from Sigma).

[1] = CCL19 induced calcium signaling
[2] = classification as decoy or active on CCR7
[3] = CCL19-induced calcium signaling
[4] = classification of tested compounds as decoy or active

Structure (SMILES)	IC50 [1] [µM]	Decoy – 0 Active – 1 [2]	IC50 [3] [µM]	Decoy – 0 Active – 1 [4]
CC1CN(Cc2ccccc2)CCC1N(C)CC(=O)NC12CC3CC(CC(C3)C1)C2 (stereo not shown) [C281, CC1CN(Cc2ccccc2)CCC1N(C)CC(=O)NC12CC3CC(CC(C3)C1)C2]	> 50	0	–	–
COc1ccc(S(=O)(=O)N(CC(=O)Nc2cccc(OC)c2)c2ccccc2)cc1 [C245, COc1ccc(cc1)S(=O)(=O)N(CC(=O)Nc2cccc(c2)OC)c3ccccc3]	> 50	0	–	–
CNC(=O)CN(c1ccc(Cl)cc1)S(=O)(=O)c1ccc(OC)c(OC)c1 [C270, CNC(=O)CN(c1ccc(cc1)Cl)S(=O)(=O)c2ccc(c(c2)OC)OC]	> 50	0	–	–
O=C1CC(C(=O)NCc2csc3c2CCCC3)C2(CCCC2)O1 (stereo not shown) [C229, O=C1CC(C(=O)NCc2csc3c2CCCC3)C2(CCCC2)O1]	> 50	0	–	–
CNC(=O)c1ccc(C=CC(=O)N(C2CC2)C(C)c2ccco2)cc1 (stereo not shown) [C055, CNC(=O)c1ccc(C=CC(=O)N(C2CC2)C(C)c2ccco2)cc1]	–	–	> 10	0
CC(O)c1ccc(S(=O)(=O)NC(c2ccccc2)c2nccn2C)cc1 (stereo not shown) [C247, CC(c1ccc(cc1)S(=O)(=O)NC(c2ccccc2)c3nccn3C)O]	> 50	0	–	–
COc1ccc(N(CC(O)CNCCC(C)C)S(=O)(=O)c2ccc(C)cc2)cc1 (stereo not shown) [C248, Cc1ccc(cc1)S(=O)(=O)N(CC(C[NH2+]CCC(C)C)O)c2ccc(cc2)OC]	> 50	0	–	–
Cc1cc(C)cc(Nc2c(-c3cccc(O)c3)nc3ncccn23)c1 [C182, Cc1cc(C)cc(Nc2c(-c3cccc(O)c3)nc3ncccn23)c1]	> 50	0	–	–
Cc1cc(NCCn2cccn2)c2ccc(C(F)(F)F)cc2n1 [C162, Cc1cc(NCCn2cccn2)c2ccc(C(F)(F)F)cc2[nH+]1]	> 50	0	–	–
CC(O)CNc1c(NCc2ccc3c(c2)OCO3)c(=O)c1=O (stereo not shown) [C001, CC(O)CNc1c(NCc2ccc3c(c2)OCO3)c(=O)c1=O]	–	–	> 50	0
Cc1oc2ccccc2c1CNC(=O)N1CCC(C)(CO)CC1 [C167, Cc1oc2ccccc2c1CNC(=O)N1CCC(C)(CO)CC1]	> 50	0	–	–
Cc1c(C(=O)NC2CC2c2ccc(F)cc2F)[nH]c2c1C(=O)CCC2 (stereo not shown) [C205, Cc1c(C(=O)NC2CC2c2ccc(F)cc2F)[nH]c2c1C(=O)CCC2]	> 50	0	–	–
COc1ccc(N2CCN(c3c(NCc4cccc(Cl)c4)c(=O)c3=O)CC2)cc1 [C002, COc1ccc(N2CCN(c3c(NCc4cccc(Cl)c4)c(=O)c3=O)CC2)cc1]	–	–	> 50	0
Cc1ccc(S(=O)(=O)N(CCC(N)=O)Cc2ccccc2)cc1 [C258, Cc1ccc(cc1)S(=O)(=O)N(CCC(=O)N)Cc2ccccc2]	> 50	0	–	–
COc1ccc(S(=O)(=O)N(CC(=O)N2CCCC2)c2ccc(Cl)cc2)cc1 [C263, COc1ccc(cc1)S(=O)(=O)N(CC(=O)N2CCCC2)c3ccc(cc3)Cl]	> 50	0	–	–
O=C1CCC(C(=O)N2CCCC2c2ccc3c(c2)OCO3)N1 (stereo not shown) [C231, O=C1CCC(C(=O)N2CCCC2c2ccc3c(c2)OCO3)N1]	> 50	0	–	–
O=C(CN(c1ccc(Br)cc1)S(=O)(=O)c1ccccc1)Nc1ccccc1C(=O)N1CCOCC1 [C233, c1ccc(cc1)S(=O)(=O)N(CC(=O)Nc2ccccc2C(=O)N3CCOCC3)c4ccc(cc4)Br]	> 50	0	–	–
Cc1ccc(C(=O)NC2CCC(=O)NC2C)cc1N1CCOCC1 (stereo not shown) [C211, Cc1ccc(C(=O)NC2CCC(=O)NC2C)cc1N1CCOCC1]	> 50	0	–	–
Cc1ccc(S(=O)(=O)N2c3ccccc3CC2CO)cc1[N+](=O)[O-] (stereo not shown) [C266, Cc1ccc(cc1[N+](=O)[O-])S(=O)(=O)N2c3ccccc3CC2CO]	> 50	0	–	–
Cc1ccc2c(CCNc3nc4[nH]ncc4c(=O)[nH]3)cn(C)c2c1 [C206, Cc1ccc2c(CCNc3nc4[nH]ncc4c(=O)[nH]3)cn(C)c2c1]	> 50	0	–	–
O=C([C@@H]1CCCO1)N1CCc2ncnc(NCCc3ccco3)c2CC1 [C086, O=C([C@@H]1CCCO1)N1CCc2ncnc(NCCc3ccco3)c2CC1]	–	–	> 50	0
COc1ccc(S(=O)(=O)N(CC(=O)NCc2ccccn2)Cc2ccccc2)cc1 [C259, COc1ccc(cc1)S(=O)(=O)N(Cc2ccccc2)CC(=O)NCc3ccccn3]	> 50	0	–	–

More lines, now with the values ahead:

IC50 [1] [µM]	Decoy – 0 Active – 1 [2]	IC50 [3] [µM]	Decoy – 0 Active – 1 [4]	Structure (SMILES)
> 50	0	–	–	O=C1CC(C(=O)N2CCCC2c2ccccc2)CN1Cc1cccnc1 (stereo not shown) [C228, O=C1CC(C(=O)N2CCCC2c2ccccc2)CN1Cc1cccnc1]
> 50	0	–	–	CN(C)C(=O)c1ccc(CN2CCCC2c2cccc(Cl)c2)[nH]1 (stereo not shown) [C287, CN(C)C(=O)c1ccc(CN2CCCC2c2cccc(Cl)c2)[nH]1]
> 50	0	–	–	CC1CN(S(=O)(=O)c2ccc(CCC(=O)O)cc2)c2ccccc21 (stereo not shown) [C268, CC1CN(c2c1cccc2)S(=O)(=O)c3ccc(cc3)CCC(=O)[O-]]
> 50	0	–	–	COc1ccccc1NC(=O)CN(c1ccccc1)S(=O)(=O)c1ccc(OC)c(OC)c1 [C235, COc1ccccc1NC(=O)CN(c2ccccc2)S(=O)(=O)c3ccc(c(c3)OC)OC]
–	–	> 50	0	O=C(CCCc1ccccc1)N[C@H]1CCN(CC(F)(F)F)C1=O [C096, O=C(CCCc1ccccc1)N[C@H]1CCN(CC(F)(F)F)C1=O]
–	–	> 50	0	CN1CC[C@H](NC(=O)CN[C@@H](c2ccccc2)C(F)(F)F)C1=O [C107, CN1CC[C@H](NC(=O)CN[C@@H](c2ccccc2)C(F)(F)F)C1=O]
–	–	> 50	0	CS(=O)(=O)c1ccc(-c2cccc(NC(=O)[C@H]3CCCO3)c2)nn1 [C101, CS(=O)(=O)c1ccc(-c2cccc(NC(=O)[C@H]3CCCO3)c2)nn1]
–	–	> 50	0	COc1cccc(-c2cc(C(=O)NCc3ccco3)no2)c1 [C094, COc1cccc(-c2cc(C(=O)NCc3ccco3)no2)c1]
–	–	> 50	0	Cc1ccc(CNC(=O)c2nnc(-c3ccc(S(=O)(=O)N(C)C)cc3)o2)o1 [C088, Cc1ccc(CNC(=O)c2nnc(-c3ccc(S(=O)(=O)N(C)C)cc3)o2)o1]
–	–	> 50	0	COC(=O)c1ccccc1Nc1c(NCC2CC2)c(=O)c1=O [C016, COC(=O)c1ccccc1Nc1c(NCC2CC2)c(=O)c1=O]
> 50	0	–	–	O=C(Nc1nc2c(s1)C(=O)CC(C(=O)NC1CCCc3ccccc31)C2)c1ccncc1 (stereo not shown) [C225, O=C(Nc1nc2c(s1)C(=O)CC(C(=O)NC1CCCc3ccccc31)C2)c1ccncc1]
> 50	0	–	–	CC1CC(C)CN(C(=O)c2ccccc2NS(=O)(=O)c2ccc3[nH]c(=O)[nH]c3c2)C1 (stereo not shown) [C257, CC1CC(CN(C1)C(=O)c2ccccc2NS(=O)(=O)c3ccc4c(c3)[nH]c(=O)[nH]4)C]
–	–	> 50	0	CN(Cc1ccccc1N[C@H]1CCN(C)C1=O)C(=O)c1cccs1 [C124, CN(Cc1ccccc1N[C@H]1CCN(C)C1=O)C(=O)c1cccs1]
–	–	> 50	0	CC[C@@H](NC1=NS(=O)(=O)c2ccccc21)C(=O)NOC [C156, CC[C@@H](NC1=NS(=O)(=O)c2ccccc21)C(=O)NOC]
–	–	> 10	0	CN(C)C(=O)c1cccc(NCC(=O)NCC2(c3ccccc3)CCC2)c1 [C052, CN(C)C(=O)c1cccc(NCC(=O)NCC2(c3ccccc3)CCC2)c1]
> 50	0	–	–	COc1ccc(S(=O)(=O)N(CC(=O)N2CCN(C)CC2)Cc2ccccc2)cc1C [C242, Cc1cc(ccc1OC)S(=O)(=O)N(Cc2ccccc2)CC(=O)N3CC[NH+](CC3)C]
–	–	> 10	0	Cc1ccc(C(C)NC(=O)C(=O)Nc2cc(C(=O)N(C)C)ccc2C)o1 (stereo not shown) [C058, Cc1ccc(C(C)NC(=O)C(=O)Nc2cc(C(=O)N(C)C)ccc2C)o1]
> 50	0	–	–	CC(C)C(CO)NC(=O)NC(c1cccc(F)c1F)C(F)(F)F (stereo not shown) [C191, CC(C)C(CO)NC(=O)NC(c1cccc(F)c1F)C(F)(F)F]
–	–	> 50	0	C[C@@H]1CCN(Cc2ccccc2)C[C@H]1Nc1nccc(C(N)=O)c1[N+](=O)[O-] [C116, C[C@@H]1CC[N@H+](Cc2ccccc2)C[C@H]1Nc1nccc(C(N)=O)c1[N+](=O)[O-]]
–	–	> 30	0	Cc1sc(NC(=S)NC(=O)CCc2ccccc2)c(C(N)=O)c1C [C029, Cc1sc(NC(=S)NC(=O)CCc2ccccc2)c(C(N)=O)c1C]
> 50	0	–	–	Cn1nc(C(=O)N[C@@H]2CCCC[C@@H]2Cc2ccccc2)ccc1=O [C160, Cn1nc(C(=O)N[C@@H]2CCCC[C@@H]2Cc2ccccc2)ccc1=O]
–	–	> 50	0	CCOC[C@H]1CCN(C(=O)Nc2cccn(CC(F)(F)F)c2=O)C1 [C104, CCOC[C@H]1CCN(C(=O)Nc2cccn(CC(F)(F)F)c2=O)C1]
